Measured values taken from patent US10774064B2 (Cadent Therapeutics, Inc., priority 2016, dated 2020).

biological target: T1, small-conductance Ca2+-activated K+ channels (SK channels, subtype 2) (Homo sapiens, UniProt Q9H2S1); assay: whole-cell patch-clamp of ionic current through SK2 channels in HEK293 cells (SC100); type: cell-based; details: whole-cell patch-clamp, HEK293 cells expressing SK2 channels; concentration that increases the basal current by 100%
T1 construct: expressed in transfected cells; host or cells: HEK293
Summary of the method: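 Whole-cell patch-clamp recording of current in HEK293 cells expressing SK2 channels. SC100 is the compound concentration that increases basal current by 100%.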

Structure (SMILES)	SC100 (μM)
Cc1csc(-c2cc(OCc3ncnn3C)cc(NC3CCC(F)(F)CC3)n2)n1 [NSSy5695]	++ (++ means 200 nM-1000 nM)
Cc1csc(-c2nc(NC3CCC(F)CC3)cc(N3CCOCC3)n2)n1 (stereo not drawn) [NSSy5699, N-(4-fluorocyclohexyl)-2-(4-methylthiazol-2-yl)-6-morpholinopyrimidin-4-amine]	+ (+ means >1 uM)
Cc1csc(-c2nc(NC3CC=CCC3)cc(N3CCOCC3)n2)n1 (stereo not drawn) [NSSy5703, N-(cyclohex-3-en-1-yl)-2-(4-methylthiazol-2-yl)-6-morpholinopyrimidin-4-amine]	+ (+ means >1 uM)
Cc1csc(-c2nc(NC3CCC(F)CC3)cc(OC3CN(C(=O)C(C)C)C3)n2)n1 (stereo not drawn) [NSSy5709]	++ (++ means 200 nM-1000 nM)
COC(=O)N1CC(Oc2cc(NC3CCC(F)CC3)nc(-c3nc(C)cs3)n2)C1 (stereo not drawn) [NSSy5710]	++ (++ means 200 nM-1000 nM)
CN(C)C1CN(c2cc(Nc3ccc(F)cc3)nc(-n3ccc(CF)n3)c2)C1 [NSSy5713]	+ (+ means >1 uM)
FCc1csc(-c2nc(NC3CCC(F)(F)CC3)cc(N3CC4(COC4)C3)n2)n1 [NSSy5715, N-(4,4-difluorocyclohexyl)-2-(4-(fluoromethyl)thiazol-2-yl)-6-(2-oxa-6-azaspiro[3.3]heptan-6-yl)pyrimidin-4-amine]	++ (++ means 200 nM-1000 nM)
Cc1csc(-c2cc(OCc3cnnn3C)cc(NC3CCC(F)(F)CC3)n2)n1 [NSSy5717]	+++ (+++ means <200 nM)
Cc1ccn(-c2cc(N3CC(C)(O)C3)cc(NC3CCC(F)(F)CC3)n2)n1 [NSSy5721]	++ (++ means 200 nM-1000 nM)
CCC(=O)N1CC(Oc2cc(NC3CCC(F)(F)CC3)nc(-c3nc(C)cs3)n2)C1 [NSSy5726]	++ (++ means 200 nM-1000 nM)
COC(=O)N(C)C1CC(Oc2cc(NC3CCC(F)(F)CC3)nc(-c3nc(C)cs3)n2)C1 (stereo not drawn) [NSSy5730]	++ (++ means 200 nM-1000 nM)
Cc1ccn(-c2cc(OCc3ncnn3C)cc(NC3CCC(F)(F)CC3)n2)n1 [NSSy5737]	++ (++ means 200 nM-1000 nM)
Cc1csc(-c2nc(NC3CCC(F)(F)CC3)cc(OC3CC(C)(O)C3)n2)n1 (stereo not drawn) [NSSy5740]	++ (++ means 200 nM-1000 nM)
COC(=O)N1CC(Oc2cc(NC3CCC(F)CC3)nc(-n3ccc(C)n3)n2)C1 (stereo not drawn) [NSSy5741]	+ (+ means >1 uM)
Cc1ccn(-c2cc(N3CCOCC3)cc(NC3CC=CCC3)n2)n1 (stereo not drawn) [NSSy5759, N-(cyclohex-3-en-1-yl)-6-(3-methyl-1H-pyrazol-1-yl)-4-morpholino pyridin-2-amine]	++ (++ means 200 nM-1000 nM)
Cc1ccn(-c2nc(NC3CC=CCC3)cc(OC3CN(C(=O)C(C)C)C3)n2)n1 (stereo not drawn) [NSSy5762]	++ (++ means 200 nM-1000 nM)
Cc1ccn(-c2cc(N3CC(N(C)C)C3)cc(NC3CCC(F)(F)CC3)n2)n1 [NSSy5763]	++ (++ means 200 nM-1000 nM)
Cc1ccn(-c2nc(NC3CCC(F)CC3)cc(OC3CN(C(=O)C(C)C)C3)n2)n1 (stereo not drawn) [NSSy5765]	++ (++ means 200 nM-1000 nM)
Cc1csc(-c2nc(NC3CCC(F)(F)CC3)cc(N3CCN4C(=O)OCC4C3)n2)n1 (stereo not drawn) [NSSy5774]	++ (++ means 200 nM-1000 nM)
COCc1cc(NC2CCC(F)(F)CC2)nc(-c2nc(C)cs2)n1 [NSSy5779, N-(4,4-difluorocyclohexyl)-6-(methoxymethyl)-2-(4-methylthiazol-2-yl)pyrimidin-4-amine]	++ (++ means 200 nM-1000 nM)
COC(=O)N1CC(Oc2cc(NC3CC=CCC3)nc(-n3ccc(C)n3)n2)C1 (stereo not drawn) [NSSy5786]	++ (++ means 200 nM-1000 nM)
Cc1csc(-c2nc(NC3CCC(F)(F)CC3)cc(N3CCC(C4COC4)CC3)n2)n1 [NSSy5787]	++ (++ means 200 nM-1000 nM)
COCC1CN(c2cc(NC3CCC(F)(F)CC3)nc(-c3nc(C)cs3)n2)CCO1 (stereo not drawn) [NSSy5789]	+++ (+++ means <200 nM)
Cc1csc(-c2nc(NC3CCC(F)(F)CC3)cc(N3CCN(C4COC4)CC3)n2)n1 [NSSy5792]	++ (++ means 200 nM-1000 nM)
COC[C@@H]1CN(c2cc(NC3CCC(F)(F)CC3)nc(-c3nc(C)cs3)n2)CCO1 [NSSy5795]	++ (++ means 200 nM-1000 nM)
COC[C@H]1CN(c2cc(NC3CCC(F)(F)CC3)nc(-c3nc(C)cs3)n2)CCO1 [NSSy5796]	+++ (+++ means <200 nM)

Structure (SMILES)	SC100 (μM)
COCC1CN(c2cc(NC3CCC(F)(F)CC3)nc(-c3nc(C)cs3)c2)CCO1 (stereo not drawn) [NSSy5807]	+++ (+++ means <200 nM)
Cc1cc(C)n(-c2cc3c(ncn3C3COC3)c(NC3CCC(F)(F)CC3)n2)n1 [NSSy5808, N-(4,4-difluorocyclohexyl)-6-(3,5-dimethyl-1H-pyrazol-1-yl)-1-(oxetan-3-yl)-1H-imidazo[4,5-c]pyridin-4-amine]	++ (++ means 200 nM-1000 nM)
Cc1csc(-c2cc(N3CCC(C4COC4)CC3)cc(NC3CCC(F)(F)CC3)n2)n1 [NSSy5815]	++ (++ means 200 nM-1000 nM)
COCc1cc(NC2CCC(F)(F)CC2)nc(-c2nc(C)co2)n1 [NSSy5818, N-(4,4-difluorocyclohexyl)-6-(methoxymethyl)-2-(4-methyloxazol-2-yl)pyrimidin-4-amine]	+ (+ means >1 uM)
Cc1csc(-c2cc(N3CCN(C4COC4)CC3)cc(NC3CCC(F)(F)CC3)n2)n1 [NSSy5819]	++ (++ means 200 nM-1000 nM)
Cc1csc(-c2cc(N3CCN4C(=O)OCC4C3)cc(NC3CCC(F)(F)CC3)n2)n1 (stereo not drawn) [NSSy5824]	+++ (+++ means <200 nM)
Cc1ccn(-c2cc(C#N)cc(NC3CCC(F)(F)CC3)n2)n1 [NSSy5826]	++ (++ means 200 nM-1000 nM)
Cc1ccn(-c2cc(CO)cc(NC3CCC(F)(F)CC3)n2)n1 [NSSy5827]	++ (++ means 200 nM-1000 nM)
Cc1ccc(OCc2cc(NC3CCC(F)(F)CC3)nc(-n3ccc(C)n3)c2)nn1 [NSSy5828, N-(4,4-difluorocyclohexyl)-6-(3-methyl-1H-pyrazol-1-yl)-4-(((6-methylpyridazin-3-yl)oxy)methyl)pyridin-2-amine]	+++ (+++ means <200 nM)
Cc1ccn(-c2cc(CF)cc(NC3CCC(F)(F)CC3)n2)n1 [NSSy5829, N-(4,4-difluorocyclohexyl)-4-(fluoromethyl)-6-(3-methyl-1H-pyrazol-1-yl)pyridin-2-amine]	++ (++ means 200 nM-1000 nM)
C/C(=N\O)Nc1cc(NC2CCC(F)(F)CC2)nc(-c2nc(C)no2)n1 [NSSy5830, (E)-N-(6-((4,4-difluorocyclohexyl)amino)-2-(3-methyl-1,2,4-oxadiazol-5-yl)pyrimidin-4-yl)-N′-hydroxyacetimidamide]	+ (+ means >1 uM)
Cc1nsc(-c2nc(NC3CCC(F)(F)CC3)cc(N3CCOCC3)n2)n1 [NSSy5832]	+ (+ means >1 uM)
Cc1noc(-c2nc(NC3CCC(F)(F)CC3)cc(N3CCOCC3)n2)n1 [NSSy5835, N-(4,4-difluorocyclohexyl)-2-(3-methyl-1,2,4-oxadiazol-5-yl)-6-morpholinopyrimidin-4-amine]	+ (+ means >1 uM)
Cc1csc(-c2cc(N3CCN4C(=O)OC[C@@H]4C3)cc(NC3CCC(F)(F)CC3)n2)n1 [NSSy5837]	+++ (+++ means <200 nM)
Cc1csc(-c2cc(N3CCN4C(=O)OC[C@H]4C3)cc(NC3CCC(F)(F)CC3)n2)n1 [NSSy5838]	+++ (+++ means <200 nM)
Cc1ccn(-c2cc(C(F)F)cc(NC3CCC(F)(F)CC3)n2)n1 [NSSy5839, N-(4,4-difluorocyclohexyl)-4-(difluoromethyl)-6-(3-methyl-1H-pyrazol-1-yl)pyridin-2-amine]	++ (++ means 200 nM-1000 nM)
Cc1ccn(-c2cc(C(C)(C)O)cc(NC3CCC(F)(F)CC3)n2)n1 [NSSy5846]	++ (++ means 200 nM-1000 nM)
N#Cc1ccn(-c2nc(NC3CCC(F)(F)CC3)cc(N3CC4(COC4)C3)n2)n1 [NSSy5847]	+ (+ means >1 uM)
N#CCc1ccn(-c2nc(NC3CCC(F)(F)CC3)cc(N3CC4(COC4)C3)n2)n1 [NSSy5848]	+ (+ means >1 uM)
COC(=O)N1CC(Oc2cc(NC3CC=C(C)CC3)nc(-c3nc(C)cs3)n2)C1 (stereo not drawn) [NSSy5854, methyl 3-((6-((4-methylcyclohex-3-en-1-yl)amino)-2-(4-methylthiazol-2-yl)pyrimidin-4-yl)oxy)azetidine-1-carboxylate]	++ (++ means 200 nM-1000 nM)
COC(=O)N1CC(Oc2cc(NC3CCC(F)(F)CC3)nc(-c3nc(C)ns3)n2)C1 [NSSy5857]	++ (++ means 200 nM-1000 nM)
COCc1cc(NC2CCC(F)(F)CC2)nc(-n2ccc(C)n2)c1 [NSSy5860]	++ (++ means 200 nM-1000 nM)
Cc1ccn(-c2cc(COc3ncc(F)cn3)cc(NC3CCC(F)(F)CC3)n2)n1 [NSSy5861]	++ (++ means 200 nM-1000 nM)
COC(=O)N1CC(Oc2nc(-c3nc(C)cs3)nc(NC3CCC(F)(F)CC3)c2Br)C1 [NSSy5868, methyl 3-((5-bromo-6-((4,4-difluorocyclohexyl)amino)-2-(4-methylthiazol-2-yl)pyrimidin-4-yl)oxy)azetidine-1-carboxylate]	+++ (+++ means <200 nM)
Cc1ccn(-c2nc(NC3CCC(F)(F)CC3)cc(OC3CC(O)C3)n2)n1 (stereo not drawn) [NSSy5879, 3-((6-((4,4-difluorocyclohexyl)amino)-2-(3-methyl-1H-pyrazol-1-yl)pyrimidin-4-yl)oxy)cyclobutan-1-ol]	++ (++ means 200 nM-1000 nM)
